From US9493455B2, “Azaindole derivatives as inhibitors of protein kinases” (ORIBASE PHARMA, priority 2012, dated 2016)

Tests used:
PDGFRA (PDGFR alpha) = molecular target: T1, PDGFRA (PDGFR alpha) (Homo sapiens, UniProt P16234); assay: In vitro kinase assay (Z′-LYTE); format: biochemical; settings: read-out: % of inhibition of the kinase compared to the control
T1 construct: purchased Invitrogen
In short: (§1)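 Single-point inhibition at 100 nM per compound (10 μM for ABL T315I), 1% DMSO final. Kinase buffer: 50 mM HEPES pH 7.5, 0.01% BRIJ-35, 10 mM MgCl2, 1 mM EGTA; ATP at previously determined apparent Km. Readout by FRET emission ratio (Z′-LYTE).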

FGFR2 = molecular target: T2, FGFR2 (Homo sapiens, UniProt P21802); assay: In vitro kinase assay (Z′-LYTE); format: biochemical; settings: read-out: % of inhibition of the kinase compared to the control
T2 construct: purchased Invitrogen
In short: as §1

EGFR (ErbB1) = molecular target: T3, EGFR (ErbB1) (Homo sapiens, UniProt P00533); assay: In vitro kinase assay (Z′-LYTE); format: biochemical; settings: read-out: % of inhibition of the kinase compared to the control
T3 construct: purchased Invitrogen
In short: as §1

SRC = molecular target: T4, SRC (Homo sapiens, UniProt P12931); assay: In vitro kinase assay (Z′-LYTE); format: biochemical; settings: read-out: % of inhibition of the kinase compared to the control
T4 construct: purchased Invitrogen
In short: as §1

KDR (VEGFR2) = molecular target: T5, KDR (VEGFR2) (Homo sapiens, UniProt P35968); assay: In vitro kinase assay (Z′-LYTE); format: biochemical; settings: read-out: % of inhibition of the kinase compared to the control
T5 construct: purchased Invitrogen
In short: as §1

BRAF = molecular target: T6, BRAF (Homo sapiens, UniProt P15056); assay: In vitro kinase assay (Z′-LYTE); format: biochemical; settings: compound 100 nM; ATP 100 μM; read-out: % of inhibition of the kinase compared to the control
T6 construct: purchased Invitrogen
In short: as §1

HUVEC = assay: In vitro cell proliferation assay (MTT); format: cell-based; settings: Homo sapiens, 72 h
Experimental: Cancer cell lines (5×10^3 cells per well) or HUVEC (1×10^4 cells per well) or HRMEC (1×10^4 cells per well) were distributed in 96-well plates and incubating in duplicate with escalating concentrations (10 nM to 3 μM) of compounds for 72 hr. Cell proliferation was measured using MTT (3 [4,5-dimethylthiazol-2-yl]-2,5-diphenyltetrazolium bromide).

HepG2 = assay: In vitro cell proliferation assay (MTT); format: cell-based; settings: Homo sapiens, HepG2, 72 h
In short: (§2)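 Cells were seeded at 5×10^3 per well and exposed in duplicate to escalating compound concentrations from 10 nM to 3 μM for 72 hr. Proliferation was then measured by MTT reduction.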

HeLa = assay: In vitro cell proliferation assay (MTT); format: cell-based; settings: Homo sapiens, 72 h
In short: as §2

A549 = assay: In vitro cell proliferation assay (MTT); format: cell-based; settings: Homo sapiens, A549, 72 h
In short: as §2

MDA-MB-231 = assay: In vitro cell proliferation assay (MTT); format: cell-based; settings: Homo sapiens, MDA-MB-231, 72 h
In short: as §2

FGFR1 = molecular target: T7, FGFR1 (Homo sapiens, UniProt P11362); assay: In vitro kinase assay (Z′-LYTE); format: biochemical; settings: read-out: % of inhibition of the kinase compared to the control
T7 construct: purchased Invitrogen
In short: as §1

ABL = molecular target: T8, ABL (Homo sapiens, UniProt P00519); assay: In vitro kinase assay (Z′-LYTE); format: biochemical; settings: read-out: % of inhibition of the kinase compared to the control
T8 construct: purchased Invitrogen

PDGFRB = molecular target: T9, PDGFRB (Homo sapiens, UniProt P09619); assay: In vitro kinase assay (Z′-LYTE); format: biochemical; settings: read-out: % of inhibition of the kinase compared to the control
T9 construct: purchased Invitrogen
In short: as §1

VEGFR1 = molecular target: T10, VEGFR1 (Homo sapiens, UniProt P17948); assay: In vitro kinase assay (Z′-LYTE); format: biochemical; settings: read-out: % of inhibition of the kinase compared to the control
T10 construct: purchased Invitrogen
In short: as §1

ABL T315I = molecular target: T11, ABL T315I (Homo sapiens, UniProt P00519, T315I); assay: In vitro kinase assay (Z′-LYTE); format: biochemical; settings: read-out: % of inhibition of the kinase compared to the control
T11 construct: purchased Invitrogen
In short: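 Inhibition measured at a single dose, 100 nM, or 10 μM for ABL T315I. Z′-LYTE format with ATP at apparent Km; emission ratio of donor to acceptor quantifies phosphorylation.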

EGFR (ErbB1) T790M L858R = molecular target: T12, EGFR (ErbB1) T790M L858R (Homo sapiens, UniProt P00533, L858R/T790M); assay: In vitro kinase assay (Z′-LYTE); format: biochemical; settings: read-out: % of inhibition of the kinase compared to the control
T12 construct: purchased Invitrogen
In short: as §1

H1975 = assay: In vitro cell proliferation assay (MTT); format: cell-based; settings: Homo sapiens, NCI-H1975, 72 h
In short: as §2

HT29 = assay: In vitro cell proliferation assay (MTT); format: cell-based; settings: Homo sapiens, HT-29, 72 h
In short: as §2

PC-3 = assay: In vitro cell proliferation assay (MTT); format: cell-based; settings: Homo sapiens, PC-3, 72 h
In short: as §2

BxPC-3 = assay: In vitro cell proliferation assay (MTT); format: cell-based; settings: Homo sapiens, BXPC-3, 72 h
In short: as §2

HuCCT1 = assay: In vitro cell proliferation assay (MTT); format: cell-based; settings: Homo sapiens, HuCCT-1, 72 h
In short: as §2

HuH7 = assay: In vitro cell proliferation assay (MTT); format: cell-based; settings: Homo sapiens, Huh-7, 72 h
In short: as §2

T7 sequence (P11362 22-822): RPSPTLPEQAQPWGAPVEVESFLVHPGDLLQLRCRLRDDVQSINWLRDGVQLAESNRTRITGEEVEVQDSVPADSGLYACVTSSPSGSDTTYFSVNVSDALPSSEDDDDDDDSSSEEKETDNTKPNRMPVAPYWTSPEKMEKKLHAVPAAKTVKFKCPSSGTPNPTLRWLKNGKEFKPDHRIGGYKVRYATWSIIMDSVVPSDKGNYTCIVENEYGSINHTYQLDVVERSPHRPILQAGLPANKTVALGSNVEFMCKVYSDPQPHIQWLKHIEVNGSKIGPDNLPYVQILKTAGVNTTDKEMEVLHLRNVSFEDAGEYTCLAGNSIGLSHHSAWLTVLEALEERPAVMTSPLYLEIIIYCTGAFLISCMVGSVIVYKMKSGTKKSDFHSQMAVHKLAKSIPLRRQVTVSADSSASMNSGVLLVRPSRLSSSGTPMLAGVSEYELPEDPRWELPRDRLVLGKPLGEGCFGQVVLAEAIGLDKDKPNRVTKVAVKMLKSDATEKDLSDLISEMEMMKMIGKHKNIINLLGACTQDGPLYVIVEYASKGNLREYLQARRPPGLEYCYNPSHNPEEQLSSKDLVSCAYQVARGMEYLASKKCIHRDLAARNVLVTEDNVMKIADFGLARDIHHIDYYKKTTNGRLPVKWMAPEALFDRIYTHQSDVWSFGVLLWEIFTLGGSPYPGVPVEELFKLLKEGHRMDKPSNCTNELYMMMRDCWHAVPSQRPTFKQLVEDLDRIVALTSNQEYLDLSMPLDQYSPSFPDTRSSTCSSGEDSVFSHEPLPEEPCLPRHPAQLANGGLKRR
T3 sequence (P00533 25-1210): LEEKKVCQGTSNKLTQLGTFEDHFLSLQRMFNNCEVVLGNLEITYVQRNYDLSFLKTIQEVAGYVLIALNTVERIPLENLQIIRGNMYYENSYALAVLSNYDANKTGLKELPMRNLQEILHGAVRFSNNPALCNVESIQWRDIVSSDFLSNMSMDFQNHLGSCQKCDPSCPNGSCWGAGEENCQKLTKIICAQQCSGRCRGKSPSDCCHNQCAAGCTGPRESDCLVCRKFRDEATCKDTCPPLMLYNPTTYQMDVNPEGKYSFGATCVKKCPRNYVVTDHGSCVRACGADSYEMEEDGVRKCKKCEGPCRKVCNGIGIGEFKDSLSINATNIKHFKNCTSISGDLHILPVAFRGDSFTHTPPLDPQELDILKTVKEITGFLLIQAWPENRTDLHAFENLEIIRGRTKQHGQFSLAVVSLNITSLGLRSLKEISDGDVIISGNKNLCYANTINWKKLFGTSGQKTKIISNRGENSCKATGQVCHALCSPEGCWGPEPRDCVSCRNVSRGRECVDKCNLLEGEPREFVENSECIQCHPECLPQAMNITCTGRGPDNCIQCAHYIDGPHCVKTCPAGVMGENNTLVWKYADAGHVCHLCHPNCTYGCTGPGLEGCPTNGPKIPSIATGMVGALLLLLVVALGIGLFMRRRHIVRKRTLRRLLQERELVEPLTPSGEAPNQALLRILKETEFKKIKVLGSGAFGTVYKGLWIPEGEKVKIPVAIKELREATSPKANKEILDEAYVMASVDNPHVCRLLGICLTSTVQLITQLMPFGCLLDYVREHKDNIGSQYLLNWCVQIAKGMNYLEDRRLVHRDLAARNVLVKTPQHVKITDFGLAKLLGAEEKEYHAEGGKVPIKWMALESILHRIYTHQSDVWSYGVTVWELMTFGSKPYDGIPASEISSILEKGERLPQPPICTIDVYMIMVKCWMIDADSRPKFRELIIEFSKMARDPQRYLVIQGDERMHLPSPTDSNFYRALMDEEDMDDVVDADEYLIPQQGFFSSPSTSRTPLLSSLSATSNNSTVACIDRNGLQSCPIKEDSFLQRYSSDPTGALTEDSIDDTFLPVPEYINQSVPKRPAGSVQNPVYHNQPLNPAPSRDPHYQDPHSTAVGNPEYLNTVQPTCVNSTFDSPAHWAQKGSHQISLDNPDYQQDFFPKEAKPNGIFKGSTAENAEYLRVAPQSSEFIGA
T2 sequence (P21802 22-821): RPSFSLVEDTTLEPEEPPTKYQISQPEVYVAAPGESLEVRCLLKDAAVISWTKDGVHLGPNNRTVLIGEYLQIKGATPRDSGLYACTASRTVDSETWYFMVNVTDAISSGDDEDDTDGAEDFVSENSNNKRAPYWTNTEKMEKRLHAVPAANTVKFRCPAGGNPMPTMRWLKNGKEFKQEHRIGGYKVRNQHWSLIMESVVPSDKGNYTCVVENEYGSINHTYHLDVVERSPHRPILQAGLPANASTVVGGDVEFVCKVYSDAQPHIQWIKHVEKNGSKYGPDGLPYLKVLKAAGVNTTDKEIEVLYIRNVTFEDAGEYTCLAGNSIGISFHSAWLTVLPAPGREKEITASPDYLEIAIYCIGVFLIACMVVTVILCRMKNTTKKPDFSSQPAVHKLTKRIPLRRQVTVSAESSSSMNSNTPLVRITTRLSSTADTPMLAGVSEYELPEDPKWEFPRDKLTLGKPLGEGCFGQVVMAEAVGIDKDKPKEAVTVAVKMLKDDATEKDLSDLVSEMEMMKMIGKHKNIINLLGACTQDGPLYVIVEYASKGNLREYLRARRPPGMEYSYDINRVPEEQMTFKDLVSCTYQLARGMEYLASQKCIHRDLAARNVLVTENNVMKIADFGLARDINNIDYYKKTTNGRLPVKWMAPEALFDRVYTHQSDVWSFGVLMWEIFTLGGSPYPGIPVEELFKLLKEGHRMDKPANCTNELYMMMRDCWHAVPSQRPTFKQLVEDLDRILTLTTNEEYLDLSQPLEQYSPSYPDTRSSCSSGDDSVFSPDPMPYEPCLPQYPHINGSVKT
T1 sequence (P16234 24-1089): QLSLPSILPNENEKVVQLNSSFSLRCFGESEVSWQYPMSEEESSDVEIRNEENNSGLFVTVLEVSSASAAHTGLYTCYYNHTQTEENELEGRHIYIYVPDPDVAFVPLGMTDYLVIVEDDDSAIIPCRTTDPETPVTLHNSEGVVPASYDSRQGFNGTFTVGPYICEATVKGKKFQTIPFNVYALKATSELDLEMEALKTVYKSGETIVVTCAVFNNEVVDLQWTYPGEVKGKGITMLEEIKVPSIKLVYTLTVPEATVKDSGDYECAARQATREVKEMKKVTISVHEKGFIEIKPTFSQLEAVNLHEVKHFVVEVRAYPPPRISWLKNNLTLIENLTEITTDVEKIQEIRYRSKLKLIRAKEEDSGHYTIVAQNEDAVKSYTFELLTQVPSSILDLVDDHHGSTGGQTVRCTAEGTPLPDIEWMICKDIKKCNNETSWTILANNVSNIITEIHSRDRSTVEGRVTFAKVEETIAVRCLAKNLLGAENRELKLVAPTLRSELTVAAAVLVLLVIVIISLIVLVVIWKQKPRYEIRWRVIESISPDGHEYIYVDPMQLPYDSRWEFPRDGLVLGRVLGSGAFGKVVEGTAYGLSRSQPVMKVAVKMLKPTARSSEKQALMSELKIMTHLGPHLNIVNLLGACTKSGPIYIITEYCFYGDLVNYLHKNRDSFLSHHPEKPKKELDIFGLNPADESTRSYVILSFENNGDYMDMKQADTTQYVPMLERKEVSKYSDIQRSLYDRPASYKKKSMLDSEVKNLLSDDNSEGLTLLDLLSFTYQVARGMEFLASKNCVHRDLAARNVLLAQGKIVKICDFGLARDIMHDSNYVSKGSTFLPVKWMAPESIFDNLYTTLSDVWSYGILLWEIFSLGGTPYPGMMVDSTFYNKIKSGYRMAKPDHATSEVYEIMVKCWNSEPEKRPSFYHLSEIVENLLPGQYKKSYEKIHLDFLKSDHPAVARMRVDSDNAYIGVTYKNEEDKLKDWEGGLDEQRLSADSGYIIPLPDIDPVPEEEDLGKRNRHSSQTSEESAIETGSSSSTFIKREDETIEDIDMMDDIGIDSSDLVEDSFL
T9 sequence (P09619 33-1106): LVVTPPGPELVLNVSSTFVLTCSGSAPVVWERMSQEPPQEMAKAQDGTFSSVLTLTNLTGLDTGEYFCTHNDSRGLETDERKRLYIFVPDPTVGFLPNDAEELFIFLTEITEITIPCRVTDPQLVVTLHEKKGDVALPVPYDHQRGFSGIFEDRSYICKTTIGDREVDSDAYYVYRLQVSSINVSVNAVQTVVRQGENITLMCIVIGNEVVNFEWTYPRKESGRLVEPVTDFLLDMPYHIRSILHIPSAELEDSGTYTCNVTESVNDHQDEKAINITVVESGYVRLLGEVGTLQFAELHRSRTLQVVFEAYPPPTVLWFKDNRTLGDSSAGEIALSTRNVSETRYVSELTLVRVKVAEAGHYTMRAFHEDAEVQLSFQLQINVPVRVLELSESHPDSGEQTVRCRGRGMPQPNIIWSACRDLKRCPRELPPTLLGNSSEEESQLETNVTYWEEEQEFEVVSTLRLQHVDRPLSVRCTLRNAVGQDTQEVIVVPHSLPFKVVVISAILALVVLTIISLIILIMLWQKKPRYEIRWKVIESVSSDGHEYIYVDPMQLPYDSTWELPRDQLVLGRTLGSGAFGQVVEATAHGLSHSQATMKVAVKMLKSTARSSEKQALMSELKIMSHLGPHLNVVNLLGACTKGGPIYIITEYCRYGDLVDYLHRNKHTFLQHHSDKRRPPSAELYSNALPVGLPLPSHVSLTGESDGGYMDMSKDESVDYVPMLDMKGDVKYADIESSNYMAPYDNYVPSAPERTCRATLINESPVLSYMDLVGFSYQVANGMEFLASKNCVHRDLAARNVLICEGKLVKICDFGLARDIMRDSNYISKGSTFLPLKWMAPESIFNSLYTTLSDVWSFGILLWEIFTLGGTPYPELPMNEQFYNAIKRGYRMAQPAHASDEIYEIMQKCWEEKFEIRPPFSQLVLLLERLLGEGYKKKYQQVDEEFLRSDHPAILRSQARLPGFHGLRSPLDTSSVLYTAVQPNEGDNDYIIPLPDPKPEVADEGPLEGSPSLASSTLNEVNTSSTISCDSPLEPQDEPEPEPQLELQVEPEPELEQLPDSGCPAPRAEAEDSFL

Structure (SMILES) | inhibition at 0.1 µM (PDGFRA (PDGFR alpha)) [%] | inhibition at 0.1 µM (FGFR2) [%] | inhibition at 0.1 µM (EGFR (ErbB1)) [%] | inhibition at 0.1 µM (SRC) [%] | inhibition at 0.1 µM (KDR (VEGFR2)) [%] | inhibition at 0.1 µM (BRAF) [%] | EC50 (HUVEC) [nM] | EC50 (HepG2) [nM] | EC50 (HeLa) [nM] | EC50 (A549) [nM] | EC50 (MDA-MB-231) [nM] | inhibition at 0.1 µM (FGFR1) [%] | inhibition at 10 µM (ABL) [%] | inhibition at 0.1 µM (PDGFRB) [%] | inhibition at 0.1 µM (VEGFR1) [%] | inhibition at 10 µM (ABL T315I) [%] | inhibition at 0.1 µM (EGFR (ErbB1) T790M L858R) [%] | EC50 (H1975) [nM] | EC50 (HT29) [nM] | EC50 (BxPC-3) [nM] | further results
COC(=O)c1cc2cc(NCc3cc(NC(=O)c4ccccc4OC)ccc3C)cnc2[nH]1 [OR1062] | ≥ 50 | < 50 | < 50 | ≥ 50 | < 50 | ≥ 50 | 100 to 1000 | ≥ 1000 | ≥ 1000 | ≥ 1000 | 100 to 1000 | – | – | – | – | – | – | – | – | – | –
COC(=O)c1cc2cc(NCc3cc(NC(=O)c4cccc(C(C)C)c4)ccc3C)cnc2[nH]1 [OR0610] | ≥ 50 | < 50 | ≥ 50 | ≥ 50 | < 50 | < 50 | ≤ 100 | 100 to 1000 | – | 100 to 1000 | ≤ 100 | < 50 | ≥ 50 | < 50 | < 50 | ≥ 50 | < 50 | 100 to 1000 | 100 to 1000 | 100 to 1000 | EC50 (PC-3): ≥ 1000 nM
COC(=O)c1cc2cc(NCc3cc(NC(=O)Nc4ccncc4)ccc3C)cnc2[nH]1 [OR0952] | < 50 | < 50 | < 50 | – | < 50 | < 50 | ≥ 1000 | ≥ 1000 | ≥ 1000 | ≥ 1000 | ≥ 1000 | – | – | – | – | – | – | – | – | – | –
COC(=O)c1cc2cc(NCc3cc(NC(=O)Cc4ccccc4Br)ccc3C)cnc2[nH]1 [OR0599] | ≥ 50 | < 50 | < 50 | ≥ 50 | < 50 | ≥ 50 | 100 to 1000 | 100 to 1000 | – | 100 to 1000 | – | < 50 | ≥ 50 | ≥ 50 | < 50 | < 50 | < 50 | 100 to 1000 | ≥ 1000 | ≥ 1000 | EC50 (HuCCT1): ≥ 1000 nM
COC(=O)c1cc2cc(NCc3cc(NC(=S)c4ccc(CN5CCN(C)CC5)c(C(F)(F)F)c4)ccc3C)cnc2[nH]1 [OR0626] | – | ≥ 50 | ≥ 50 | – | < 50 | < 50 | ≥ 1000 | ≥ 1000 | ≥ 1000 | ≥ 1000 | 100 to 1000 | – | – | – | – | – | – | – | – | – | –
COC(=O)c1cc2cc(NCc3cc(NC(=O)c4ccc5c(c4)OCO5)ccc3C)cnc2[nH]1 [OR0615] | ≥ 50 | < 50 | < 50 | ≥ 50 | ≥ 50 | ≥ 50 | 100 to 1000 | ≥ 1000 | – | ≥ 1000 | – | < 50 | ≥ 50 | ≥ 50 | < 50 | < 50 | < 50 | ≥ 1000 | ≥ 1000 | ≥ 1000 | EC50 (HuCCT1): ≥ 1000 nM
COC(=O)c1cc2cc(NCc3cccc(NC(=O)c4ccc(CN5CCN(C)CC5)c(C(F)(F)F)c4)c3)cnc2[nH]1 [OR1067] | ≥ 50 | ≥ 50 | ≥ 50 | ≥ 50 | ≥ 50 | < 50 | ≤ 100 | ≥ 1000 | 100 to 1000 | 100 to 1000 | – | – | – | – | – | – | – | – | – | – | –
COC(=O)c1cc2cc(NCc3cc(NC(=O)c4cccc(C)c4)ccc3C)cnc2[nH]1 [OR0607] | ≥ 50 | < 50 | < 50 | ≥ 50 | ≥ 50 | ≥ 50 | ≤ 100 | 100 to 1000 | – | 100 to 1000 | – | < 50 | ≥ 50 | ≥ 50 | < 50 | < 50 | < 50 | 100 to 1000 | 100 to 1000 | 100 to 1000 | EC50 (HuCCT1): 100 to 1000 nM
COC(=O)c1cc2cc(NCc3cc(NC(=O)c4ccc(O)c(C(F)(F)F)c4)ccc3C)cnc2[nH]1 [OR0605] | ≥ 50 | < 50 | ≥ 50 | ≥ 50 | < 50 | < 50 | – | – | – | – | – | < 50 | ≥ 50 | < 50 | < 50 | < 50 | < 50 | – | – | ≥ 1000 | EC50 (HuH7): 100 to 1000 nM
COC(=O)c1cc2cc(NC(=O)c3cccc(CNC(=S)c4cccc(C(F)(F)F)c4)c3)cnc2[nH]1 [OR1011] | < 50 | < 50 | < 50 | – | < 50 | < 50 | ≥ 1000 | ≥ 1000 | ≥ 1000 | ≥ 1000 | ≥ 1000 | – | – | – | – | – | – | – | – | – | –
COC(=O)c1cc2cc(NCc3cc(NC(=S)Nc4cccc(C(F)(F)F)c4)ccc3C)cnc2[nH]1 [OR1016] | – | – | < 50 | – | < 50 | < 50 | ≥ 1000 | 100 to 1000 | ≥ 1000 | ≥ 1000 | 100 to 1000 | – | – | – | – | – | – | – | – | – | –
